# According to ChEMBL document CHEMBL1128738, “Sigma ligands with subnanomolar affinity and preference for the sigma 2 binding site. 1. 3-(omega-aminoalkyl)-1H-indoles” (J Med Chem, 1995):
# Legend:
# Sigma 2 receptor = experiment: Binding affinity towards sigma receptor binding site 2 using [3H]DTG of whole rat brain homogenates except cerebellum; type: tissue-based
# D(2) dopamine receptor = D(2) dopamine receptor (Rattus norvegicus, UniProt P61169); experiment: Binding affinity towards Dopamine receptor D2 binding site using [3H]spiroperidol.
# D(2) dopamine receptor, sequence (P61169 whole entry): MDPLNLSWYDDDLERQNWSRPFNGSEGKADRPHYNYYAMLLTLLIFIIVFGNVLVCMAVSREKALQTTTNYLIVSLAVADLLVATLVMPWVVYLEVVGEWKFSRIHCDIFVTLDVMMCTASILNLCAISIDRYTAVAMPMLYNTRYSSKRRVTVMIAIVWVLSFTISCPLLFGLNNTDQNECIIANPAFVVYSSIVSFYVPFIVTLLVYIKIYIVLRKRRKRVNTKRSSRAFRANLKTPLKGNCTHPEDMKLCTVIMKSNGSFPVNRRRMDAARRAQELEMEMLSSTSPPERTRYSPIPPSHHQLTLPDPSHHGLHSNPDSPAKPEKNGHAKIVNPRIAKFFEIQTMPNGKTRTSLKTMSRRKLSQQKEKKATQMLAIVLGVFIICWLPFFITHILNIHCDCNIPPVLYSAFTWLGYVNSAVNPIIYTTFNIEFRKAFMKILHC
# [1] = molecular target: T1, Adrenergic receptor alpha-1 (Rattus norvegicus, UniProt P15823+P23944+P43140); experiment: Binding affinity towards Alpha-1 adrenergic receptor binding site using [3H]prazosin.; type: protein assay
# T1 sequence (P15823 whole entry): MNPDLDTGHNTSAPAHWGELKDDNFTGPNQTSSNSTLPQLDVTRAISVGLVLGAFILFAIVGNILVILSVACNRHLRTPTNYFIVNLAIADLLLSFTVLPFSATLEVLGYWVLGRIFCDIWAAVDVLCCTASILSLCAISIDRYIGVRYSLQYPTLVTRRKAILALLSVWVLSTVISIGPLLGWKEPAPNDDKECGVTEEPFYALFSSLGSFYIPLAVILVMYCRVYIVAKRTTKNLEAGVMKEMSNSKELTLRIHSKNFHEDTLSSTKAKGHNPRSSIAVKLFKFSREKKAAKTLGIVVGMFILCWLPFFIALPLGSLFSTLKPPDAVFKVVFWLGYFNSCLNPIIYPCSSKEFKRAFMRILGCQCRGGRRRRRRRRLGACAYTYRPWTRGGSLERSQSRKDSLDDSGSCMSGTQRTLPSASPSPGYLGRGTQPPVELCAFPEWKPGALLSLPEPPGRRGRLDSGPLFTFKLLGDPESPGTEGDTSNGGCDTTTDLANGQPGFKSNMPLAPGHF
# T1 sequence (P23944 whole entry): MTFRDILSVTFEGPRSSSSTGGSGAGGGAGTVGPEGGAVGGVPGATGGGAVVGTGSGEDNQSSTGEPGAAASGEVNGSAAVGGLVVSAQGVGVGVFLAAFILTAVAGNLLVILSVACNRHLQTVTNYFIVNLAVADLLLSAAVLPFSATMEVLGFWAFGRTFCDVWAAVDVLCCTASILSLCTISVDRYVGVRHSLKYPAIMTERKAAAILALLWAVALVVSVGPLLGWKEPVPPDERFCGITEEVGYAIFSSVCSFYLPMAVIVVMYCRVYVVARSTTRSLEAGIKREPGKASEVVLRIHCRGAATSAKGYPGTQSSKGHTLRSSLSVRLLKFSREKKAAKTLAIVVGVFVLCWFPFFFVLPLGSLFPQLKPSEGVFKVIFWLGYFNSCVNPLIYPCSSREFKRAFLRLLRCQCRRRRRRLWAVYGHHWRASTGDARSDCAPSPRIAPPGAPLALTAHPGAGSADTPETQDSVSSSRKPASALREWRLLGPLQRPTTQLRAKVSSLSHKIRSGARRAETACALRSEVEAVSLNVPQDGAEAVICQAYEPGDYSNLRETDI
# T1 sequence (P43140 whole entry): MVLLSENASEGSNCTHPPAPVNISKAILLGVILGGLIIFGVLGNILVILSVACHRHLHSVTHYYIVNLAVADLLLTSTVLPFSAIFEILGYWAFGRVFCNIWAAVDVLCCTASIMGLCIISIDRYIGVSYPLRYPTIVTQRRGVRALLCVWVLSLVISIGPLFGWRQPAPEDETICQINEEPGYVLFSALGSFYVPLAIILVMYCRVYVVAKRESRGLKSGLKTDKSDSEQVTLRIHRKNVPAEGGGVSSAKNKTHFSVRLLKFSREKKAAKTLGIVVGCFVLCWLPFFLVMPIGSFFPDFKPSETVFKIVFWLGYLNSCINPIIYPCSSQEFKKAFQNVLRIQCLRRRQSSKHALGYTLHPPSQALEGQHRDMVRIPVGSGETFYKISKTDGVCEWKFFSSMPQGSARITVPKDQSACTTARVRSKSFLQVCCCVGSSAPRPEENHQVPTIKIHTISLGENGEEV
# [2] = molecular target: Sigma non-opioid intracellular receptor 1 (Rattus norvegicus, UniProt Q9R0C9); experiment: Binding affinity towards sigma receptor binding site 1 using [3H](+)-pentazocine
# Sigma non-opioid intracellular receptor 1, sequence (Q9R0C9 whole entry): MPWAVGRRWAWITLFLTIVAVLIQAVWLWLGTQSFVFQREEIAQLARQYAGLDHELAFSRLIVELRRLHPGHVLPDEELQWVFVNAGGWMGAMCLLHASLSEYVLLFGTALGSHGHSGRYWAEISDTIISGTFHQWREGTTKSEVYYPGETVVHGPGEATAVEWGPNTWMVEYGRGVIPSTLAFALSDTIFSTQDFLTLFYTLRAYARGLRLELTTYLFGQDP
# [3] = molecular target: T2, 5-hydroxytryptamine receptor 1A (Rattus norvegicus, UniProt P19327); experiment: Binding affinity towards 5-hydroxytryptamine 1A receptor binding site using [3H]8-OH-DPAT.
# T2 sequence (P19327 whole entry): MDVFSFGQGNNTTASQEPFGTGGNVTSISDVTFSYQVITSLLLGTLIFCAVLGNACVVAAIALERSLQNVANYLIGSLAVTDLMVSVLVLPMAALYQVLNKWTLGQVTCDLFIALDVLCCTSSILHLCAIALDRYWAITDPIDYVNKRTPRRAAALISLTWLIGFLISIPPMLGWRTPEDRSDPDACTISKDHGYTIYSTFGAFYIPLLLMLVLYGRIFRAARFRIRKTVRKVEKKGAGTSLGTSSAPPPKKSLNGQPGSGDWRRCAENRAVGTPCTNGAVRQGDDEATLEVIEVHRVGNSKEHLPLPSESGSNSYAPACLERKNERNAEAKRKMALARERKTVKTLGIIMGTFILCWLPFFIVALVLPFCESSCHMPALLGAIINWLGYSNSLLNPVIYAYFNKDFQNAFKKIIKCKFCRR
# [4] = molecular target: 5-hydroxytryptamine receptor 2A (Rattus norvegicus, UniProt P14842); experiment: Binding affinity towards 5-hydroxytryptamine 2A receptor binding site using [3H]ketanserin.
# 5-hydroxytryptamine receptor 2A, sequence (P14842 whole entry): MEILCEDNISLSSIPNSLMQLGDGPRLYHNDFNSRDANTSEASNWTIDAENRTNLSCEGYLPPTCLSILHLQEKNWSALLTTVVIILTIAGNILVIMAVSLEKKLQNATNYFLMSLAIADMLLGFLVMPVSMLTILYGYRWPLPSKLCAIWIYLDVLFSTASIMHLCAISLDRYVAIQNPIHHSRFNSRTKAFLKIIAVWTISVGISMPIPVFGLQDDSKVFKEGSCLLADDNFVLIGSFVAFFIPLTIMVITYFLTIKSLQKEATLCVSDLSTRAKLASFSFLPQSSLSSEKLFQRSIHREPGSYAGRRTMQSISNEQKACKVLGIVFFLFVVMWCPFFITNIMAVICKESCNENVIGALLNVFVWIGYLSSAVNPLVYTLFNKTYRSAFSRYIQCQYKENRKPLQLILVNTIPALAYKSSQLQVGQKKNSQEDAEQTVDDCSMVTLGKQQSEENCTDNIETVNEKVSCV
# [5] = molecular target: Sigma non-opioid intracellular receptor 1 (Rattus norvegicus) (UniProt Q9R0C9); experiment: Ratio of the binding affinities for sigma-1 and sigma 2 type receptors, ratio of IC50
# Sigma non-opioid intracellular receptor 1 (Rattus norvegicus), sequence (Q9R0C9 whole entry): as the sequence (Q9R0C9 whole entry) above
# [6] = molecular target: T1, Adrenergic receptor alpha-1; experiment: Binding affinity for Alpha-1 adrenergic receptor with [3H]prazosin; type: protein assay
Compound,IC50 (Sigma 2 receptor) [nM],IC50 (D(2) dopamine receptor) [nM],IC50 [1] [nM],IC50 [2] [nM],IC50 [3] [nM],IC50 [4] [nM],Ratio [5],IC50 [6] [nM]
c1ccc2c(c1)COC21CCN(CCCCc2c[nH]c3ccccc23)CC1,0.41,1300,30,2.5,130,360,–,–
CC(=O)n1cc(CCCCN2CCC3(CC2)OCc2ccccc23)c2ccccc21,0.21,–,–,5.7,–,–,27,–
c1ccc2c(c1)COC21CCN(CCCCc2cn(-c3ccsc3)c3ccccc23)CC1,0.25,–,–,7,–,–,28,–
COc1ccccc1N1CCN(CCCCc2c[nH]c3ccccc23)CC1,21,15,2.7,14,–,150,–,–
c1csc(-n2cc(CCCCN3CCC4(CC3)OCc3ccccc34)c3ccccc32)c1,0.24,–,–,7.7,–,–,32,–
Fc1ccc(-n2cc(CCCCN3CCC(c4ccccc4)CC3)c3ccccc32)cc1,0.44,–,–,44,–,–,100,–
Fc1ccc(-n2cc(CCCCN3CCC4(CC3)OCc3ccccc34)c3ccccc32)cc1 [SIRAMESINE],–,800,–,–,21000,2000,–,330
Fc1ccc(-n2cc(CCCCN3CCN(c4ccccc4)CC3)c3ccccc32)cc1,0.69,–,–,27,–,–,39,–
COc1ccccc1C1CCN(CCCCc2c[nH]c3ccccc23)CC1,3.3,20,11,4.5,56,83,–,–
Fc1ccc(C2=CCN(CCCCc3c[nH]c4ccccc34)CC2)cc1,2.3,51,24,7.5,71,27,–,–
Fc1ccc(-n2cc(CCCN3CCC4(CC3)OCc3ccccc34)c3ccccc32)cc1,2.8,–,–,10,–,–,3.6,–
Cc1ccc(S(=O)(=O)n2cc(CCCCN3CCC4(CC3)OCc3ccccc34)c3ccccc32)cc1,0.17,–,–,10,–,–,59,–
Fc1ccc(C2=CC3CCC(C2)N3CCCCc2cn(-c3ccc(F)cc3)c3ccccc23)cc1 (stereo not given),2.5,8000,350,1200,> 10000,3700,–,–
c1ccc(C2CCN(CCCCc3c[nH]c4ccccc34)CC2)cc1,0.48,45,14,1.5,110,25,–,–
c1ccc(CN2CCC3(CCCc4ccccc43)CC2)cc1,12,–,1000,0.26,> 100000,7100,–,–
c1ccc2c(c1)COC21CCN(CCCCc2cn(-c3ccncc3)c3ccccc23)CC1,0.41,–,–,14,–,–,34,–
Fc1ccc(N2CCN(CCCCc3c[nH]c4ccccc34)CC2)cc1,1.3,180,12,5.6,37,14,–,–
c1ccc2c(c1)COC21CCN(CCCCc2cn(-c3nccs3)c3ccccc23)CC1,0.19,–,–,14,–,–,74,–
Fc1ccc(N2CCN(CCCCc3cn(-c4ccc(F)cc4)c4ccccc34)CC2)cc1,7.5,3000,420,440,> 10000,250,–,–
Fc1ccc(C2CCN(CCCCc3cn(-c4ccc(F)cc4)c4ccccc34)CC2)cc1,0.27,4200,220,–,22000,270,–,–
Fc1ccc(-n2cc(CN3CCC4(CC3)OCc3ccccc34)c3ccccc32)cc1,4.7,–,–,3,–,–,0.64,–
Cn1cc(CCCCN2CCC3(CC2)OCc2ccccc23)c2ccccc21,0.3,–,–,2.1,–,–,7,–
CS(=O)(=O)n1cc(CCCCN2CCC3(CC2)OCc2ccccc23)c2ccccc21,0.05,–,–,1.3,–,–,26,–
Fc1ccc(-n2cc(CCN3CCC4(CC3)OCc3ccccc34)c3ccccc32)cc1,3,–,–,15,–,–,5,–
OC(CCCN1CCN(c2ncc(F)cn2)CC1)c1ccc(F)cc1 (stereo not given) [BMY-14802],–,8400,1500,–,–,830,–,–
c1ccc(Cn2cc(CCCCN3CCC4(CC3)OCc3ccccc34)c3ccccc32)cc1,0.48,–,–,5.2,–,–,11,–
Fc1ccc(C2CCN(CCCCc3c[nH]c4ccccc34)CC2)cc1,4,160,20,1.4,27,34,–,–
O=C(CC1CCN(CC2CC2)CC1)c1ccc(F)cc1,–,–,21,–,44000,66,–,–
